Data taken from patent US12304890B2, “R-type pyridyloxycarboxylic acid, salt and ester derivative thereof, and preparation method therefor, and herbicidal composition and application thereof” (Qingdao Kingagroot Chemical Compound Co., Ltd., priority 2018, dated 2025).

What was measured:
Assay type in all cases: in vivo
Digitaria sanguinalis = experiment: Post-emergence test experiment, Digitaria sanguinalis; conditions: 1000 g a.i./ha, 3 weeks in greenhouse, fresh weight inhibition
Experimental: (§1) The above described growth inhibition rate is fresh weight inhibition rate.
(§2) Post-emergence test experiment: Monocotyledonous and dicotyledonous weed seeds and main crop seeds (i. e. wheat, corn, rice, soybean, cotton, oilseed, millet and sorghum.) were put into a plastic pot loaded with soil. Then covered with 0.5-2 cm soil, the seeds were allowed to grow in good greenhouse environment. The test plants were treated at 2-3 leaf stage 2 weeks after sowing. The test compounds of the invention were dissolved with acetone respectively, then added with tween-80, and using 1.5 liters per hectare of an emulsible concentrate of methyl oleate as a synergist, and diluted by certain amount of water to certain concentration. The solution was sprayed to the plants with a sprayer. Then the plants were cultured for 3 weeks in the greenhouse, and the experiment result of weed controlling effect was listed in tables 4-5.

[1] = system: Monocotyledonous and dicotyledonous weed seeds and main crop seeds; experiment: Post-emergence test experiment, other weeds and crops (Table 4, 1000 g a.i./ha); conditions: 3 weeks in greenhouse, fresh weight inhibition
Experimental: as §1
as §2, with “sprayer.” for “sprayer. Then the plants were cultured for 3 weeks in the greenhouse, and the experiment result of weed controlling effect was listed in tables 4-5.”

Echinochloa crusgalli = experiment: Post-emergence test experiment, Echinochloa crusgalli; conditions: for Activity level (growth inhibition rate), Echinochloa crusgalli: 1000 g a.i./ha, 3 weeks in greenhouse, fresh weight inhibition
Experimental: as §1, §2

Row | SMILES | Activity level (growth inhibition rate), Digitaria sanguinalis (Digitaria sanguinalis) | Activity level (growth inhibition rate), Abutilon theophrasti Medic. [1] | Activity level (growth inhibition rate), Galium aparine [1] | Activity level (growth inhibition rate), Monochoria Vaginalis [1] | Activity level (growth inhibition rate), Echinochloa crusgalli (Echinochloa crusgalli) | inhibition at 200 g/ha (Echinochloa crusgalli; Echinochloa crus-galli, 504 h, 200 g a.i./ha, 3 weeks, weed resistant to ALS inhibitor and ACCe herbicides, read-out: Echinochloa crusgalli, activity level (growth inhibition rate)) [%]
1 | CC(Oc1nc(F)c(Cl)c(N)c1Cl)C(=O)[S-].CC(Oc1nc(F)c(Cl)c(N)c1Cl)C(=O)[S-].[Ca+2] (stereo not shown) [Compound 2-2] | 5 (Level 5: the growth inhibition rate is greater than 85%) | 5 (Level 5: the growth inhibition rate is greater than 85%) | 5 (Level 5: the growth inhibition rate is greater than 85%) | 5 (Level 5: the growth inhibition rate is greater than 85%) | 5 (Level 5: the growth inhibition rate is greater than 85%) | 
2 | CC(Oc1nc(F)c(Cl)c(N)c1Cl)C(=O)O.N (stereo not shown) [Compound 2-3] | 5 (Level 5: the growth inhibition rate is greater than 85%) | 5 (Level 5: the growth inhibition rate is greater than 85%) | 5 (Level 5: the growth inhibition rate is greater than 85%) | 5 (Level 5: the growth inhibition rate is greater than 85%) | 5 (Level 5: the growth inhibition rate is greater than 85%) | 
3 | CC(Oc1nc(F)c(Cl)c(N)c1Cl)C(=O)[S-].C[N+](C)(C)C (stereo not shown) [Compound 2-4] | 5 (Level 5: the growth inhibition rate is greater than 85%) | 5 (Level 5: the growth inhibition rate is greater than 85%) | 5 (Level 5: the growth inhibition rate is greater than 85%) | 5 (Level 5: the growth inhibition rate is greater than 85%) | 5 (Level 5: the growth inhibition rate is greater than 85%) | 
4 | CC(Oc1nc(F)c(Cl)c(N)c1Cl)C(=O)O.CNC (stereo not shown) [Compound 2-7] | 5 (Level 5: the growth inhibition rate is greater than 85%) | 5 (Level 5: the growth inhibition rate is greater than 85%) | 5 (Level 5: the growth inhibition rate is greater than 85%) | 5 (Level 5: the growth inhibition rate is greater than 85%) | 5 (Level 5: the growth inhibition rate is greater than 85%) | 
5 | CC(Oc1nc(F)c(Cl)c(N)c1Cl)C(=O)O.CN(C)CCO (stereo not shown) [Compound 2-14] | 5 (Level 5: the growth inhibition rate is greater than 85%) | 5 (Level 5: the growth inhibition rate is greater than 85%) | 5 (Level 5: the growth inhibition rate is greater than 85%) | 5 (Level 5: the growth inhibition rate is greater than 85%) | 5 (Level 5: the growth inhibition rate is greater than 85%) | 
6 | CC(N)CN.CC(Oc1nc(F)c(Cl)c(N)c1Cl)C(=O)S (stereo not shown) [Compound 2-17] | 5 (Level 5: the growth inhibition rate is greater than 85%) | 5 (Level 5: the growth inhibition rate is greater than 85%) | 5 (Level 5: the growth inhibition rate is greater than 85%) | 5 (Level 5: the growth inhibition rate is greater than 85%) | 5 (Level 5: the growth inhibition rate is greater than 85%) | 
7 | CC(Oc1nc(F)c(Cl)c(N)c1Cl)C(=O)O.CCC(N)(CO)CO (stereo not shown) [Compound 2-22] | 5 (Level 5: the growth inhibition rate is greater than 85%) | 5 (Level 5: the growth inhibition rate is greater than 85%) | 5 (Level 5: the growth inhibition rate is greater than 85%) | 5 (Level 5: the growth inhibition rate is greater than 85%) | 5 (Level 5: the growth inhibition rate is greater than 85%) | 
8 | C1COCCN1.CC(Oc1nc(F)c(Cl)c(N)c1Cl)C(=O)O (stereo not shown) [Compound 2-24] | 5 (Level 5: the growth inhibition rate is greater than 85%) | 5 (Level 5: the growth inhibition rate is greater than 85%) | 5 (Level 5: the growth inhibition rate is greater than 85%) | 5 (Level 5: the growth inhibition rate is greater than 85%) | 5 (Level 5: the growth inhibition rate is greater than 85%) | 
9 | COC(=O)[C@@H](C)Oc1ncc(Cl)c(N)c1C [Compound 2-28] | 5 (Level 5: the growth inhibition rate is greater than 85%) | 5 (Level 5: the growth inhibition rate is greater than 85%) | 5 (Level 5: the growth inhibition rate is greater than 85%) | 5 (Level 5: the growth inhibition rate is greater than 85%) | 5 (Level 5: the growth inhibition rate is greater than 85%) | 
10 | COC(=O)[C@@H](C)Oc1nc(F)c(Cl)c(N)c1C [Compound 2-29] | 5 (Level 5: the growth inhibition rate is greater than 85%) | 5 (Level 5: the growth inhibition rate is greater than 85%) | 5 (Level 5: the growth inhibition rate is greater than 85%) | 5 (Level 5: the growth inhibition rate is greater than 85%) | 5 (Level 5: the growth inhibition rate is greater than 85%) | 
11 | COC(=O)[C@@H](C)Oc1nc(Cl)c(Cl)c(N)c1Cl [Compound 2-31] | 5 (Level 5: the growth inhibition rate is greater than 85%) | 5 (Level 5: the growth inhibition rate is greater than 85%) | 5 (Level 5: the growth inhibition rate is greater than 85%) | 5 (Level 5: the growth inhibition rate is greater than 85%) | 5 (Level 5: the growth inhibition rate is greater than 85%) | 
12 | COC(=O)[C@@H](C)Oc1nc(C)c(Cl)c(N)c1Cl [Compound 2-32] | 5 (Level 5: the growth inhibition rate is greater than 85%) | 5 (Level 5: the growth inhibition rate is greater than 85%) | 5 (Level 5: the growth inhibition rate is greater than 85%) | 5 (Level 5: the growth inhibition rate is greater than 85%) | 5 (Level 5: the growth inhibition rate is greater than 85%) | 
13 | CC(C)OC(=O)[C@@H](C)Oc1nc(F)c(Cl)c(N)c1Cl [Compound 2-75] | 5 (Level 5: the growth inhibition rate is greater than 85%) | 5 (Level 5: the growth inhibition rate is greater than 85%) | 5 (Level 5: the growth inhibition rate is greater than 85%) | 5 (Level 5: the growth inhibition rate is greater than 85%) | 5 (Level 5: the growth inhibition rate is greater than 85%) | 
14 | CC(C)SC(=O)[C@@H](C)Oc1nc(F)c(Cl)c(N)c1Cl [Compound 2-76] | 5 (Level 5: the growth inhibition rate is greater than 85%) | 5 (Level 5: the growth inhibition rate is greater than 85%) | 5 (Level 5: the growth inhibition rate is greater than 85%) | 5 (Level 5: the growth inhibition rate is greater than 85%) | 5 (Level 5: the growth inhibition rate is greater than 85%) | 
15 | CC(C)COC(=O)[C@@H](C)Oc1nc(F)c(Cl)c(N)c1Cl [Compound 2-79] | 5 (Level 5: the growth inhibition rate is greater than 85%) | 5 (Level 5: the growth inhibition rate is greater than 85%) | 5 (Level 5: the growth inhibition rate is greater than 85%) | 5 (Level 5: the growth inhibition rate is greater than 85%) | 5 (Level 5: the growth inhibition rate is greater than 85%) | 
16 | C[C@H](Oc1nc(F)c(Cl)c(N)c1Cl)C(=O)OCC1CCCO1 (stereo partly shown) [reference compound] |  |  |  |  |  | 5 to 20
